Key:
honeybees = experiment: Test for Confirmation of Honeybee Repelling Effect 1, 2, 3 (feeding station with 40% sugar water); format: in vivo; details: for Corrected repelling rate (%) Honeybees: Test 3, 5 mL
From the text: The following were used as the test samples for Examples: 2% by weight per volume ethanol solutions of octane (a-1), tetradecane (a-2), heptadecane (a-3), nonadecane (a-4), 2-acetylfuran (b-1), 5-methyl-2-furaldehyde (b-2), furfural (b-3), furaneol (c-1), 2-acetylpyrrole (d-1), 1-benzylpyrrole (d-2), 1-octanol (e-1), 1-dodecanol (e-2), and 1-octadecanol (e-3), respectively; and 2% by weight per volume aqueous solutions of furfuryl alcohol (b-4), sotolon (c-2), and α-angelicalactone (c-3), respectively.
The following were used as the test samples for Comparative Examples: 2% by weight per volume ethanol solutions of eicosane (carbon number 20, p-1), heneicosane (carbon number 21, p-2), 2-methyloctane (branched alkane, p-3), tributyl o-acetylcitrate (p-4), and 1-methylpyrrole (p-5), respectively; and 2% by weight per volume aqueous solutions of 2-methyltetrahydrofuran-3-one (p-6) and acetic acid (p-7), respectively.
Ethanol alone and water alone were used as samples for correction.
The cotton pads 13 were impregnated with 40% sugar water (80 g), after which disposable wooden chopsticks 15 (80 mm in length) were placed over the cotton pads on the lid surface as “landing areas,” for use as “test insect (honeybee) feeding station 1” 10.
A nest box of test insects (honeybees) (1 colony: approx. 6,000 bees) was placed at the center of a glass hothouse (bottom face: 5 m×10 m, height (highest part): 3 m, temperature: 25° C.), and the aforementioned “test insect (honeybee) feeding station 1” was installed at a location 2 meters away from the nest box.
After confirming that at least five test insects (honeybees) were feeding at the above “test insect (honeybee) feeding station 1” installed in the hothouse, test 1 was conducted to measure the “approaching count (Mz)” and “landing count (My)” and calculate the “landing rate (Mx).”
Next, the “test insect (honeybee) feeding station 1” installed in the hothouse was replaced with each “test insect (honeybee) feeding station 2” which was let to stand still for 5 minutes, after which test 2 was conducted to measure the “approaching count (Nz)” and “landing count (Ny)” and calculate the “landing rate (Nx).”
Approaching count: Total number of times a honeybee has approached within 25 cm of the cotton wools at the feeding station during 5 minutes
Landing count: Total number of honeybees that have remained for at least 1 second on the cotton pads at the feeding station during 5 minutes
Landing rate (%): (Landing count/Approaching count)×100
The “repelling rate Q” and “corrected repelling rate R” were calculated from the above “landing rates” using the calculation formula below. For the “repelling rate of sample for correction” used to calculate the “corrected repelling rate R,” the repelling rate of each of the samples for correction above (ethanol alone or water alone being a solvent for the active ingredient) was used.
Repelling rate Q (%)={(Mx)−(Nx)}/(Mx)×100
Corrected repelling rate R (%)={Repelling rate of test sample−Repelling rate of sample for correction}/{100−Repelling rate of sample for correction}×100
The following were used as the test samples for Examples: 0.1% by weight per volume ethanol solutions of 3-methyl-2-butanol (e-4), carvacrol (x-1), isoeugenol (x-2), cinnamyl alcohol (x-3), diacetone alcohol (x-4), α-amylcinnamaldehyde (x-5), 3-methyl-2-butenal (x-6), valeraldehyde (x-7), ethyl cinnamate (x-8), methyl cinnamate (x-9), ethyl isovalerate (x-10), isoamyl formate (x-11), 5-ethyl-2-methylpyridine (x-12), 2-(3-phenylpropyl)pyridine (x-13), 2,6-dimethylpyridine (x-14), ß-ionone (x-15), 2-acetylthiazole (x-16), butylamine (x-17), and citronella oil (x-18), respectively; and a 0.1% by weight per volume aqueous solution of (3-amino-3-carboxypropyl)dimethylsulfonium chloride (x-19).

stink bugs = experiment: Test for Confirmation of Stink Bug Behaviors against Active Ingredients 1, 2, 3 (treated filter paper); format: in vivo, southern green stink bugs
From the text: The test samples in “Test for Confirmation of Honeybee Repelling Effect 1” above were used.
A liquid calcium carbonate/ethanol dispersion was applied on the entire interior wall of a KP cup (100 mm in diameter×90 mm in height) and air-dried, after which a filter paper (90 mm in diameter) was fixed on the bottom face of the KP cup using double-sided tape. A different filter paper (90 mm in diameter) was cut along its diameter and the resulting semicircle-shaped paper was uniformly treated with 400 μL of each test sample or sample for correction, and then placed over the filter paper fixed on the aforementioned bottom face of the KP cup by allowing the circular parts to overlap, for use as a testing device.
The “repelling rate Y” and “corrected repelling rate Z” were calculated from the above “time A (sec)” and “time B (sec)” using the calculation formula below. For the “repelling rate of sample for correction” used to calculate the “corrected repelling rate Z,” the repelling rate of each of the samples for correction above (ethanol alone or water alone being a solvent for the active ingredient) was used.
Corrected repelling rate Z (%)={Repelling rate of test sample−Repelling rate of sample for correction}/{100−Repelling rate of sample for correction}×100
For the test samples, the test samples in “Test for Confirmation of Honeybee Repelling Effect 2” above were used.

[1] = 0.1% by weight per volume solution
[2] = Test 3, 0.1% by weight per volume solution, 400 μL
[3] = Test 2, honeybees, 0.1% by weight per volume solution, 5 mL (active ingredient 5 mg)
[4] = Test 2, 0.1% by weight per volume solution, 400 μL
[5] = Test 1, 2% by weight per volume solution
[6] = Test 1, honeybees, 2% by weight per volume solution, 5 mL sprayed (active ingredient 0.1 g)
[7] = Test 1, 2% by weight per volume solution, 400 μL on filter paper, 30 minutes

## CCCC(=O)O [y-73, butyric acid]
honeybees; [1]
  Corrected repelling rate (%) Honeybees: 33.0%
Stink bugs; [2]
  Corrected repelling rate (%) Stinkbugs: ∘

## C=CCOC(=O)CCC1CCCCC1 [y-43, allyl cyclohexanepropionate]
honeybees; [1]
  Corrected repelling rate (%) Honeybees: 90.4%
Stink bugs
  repelling of stink bugs and other injurious insects to be exterminated (in words): not repelling stink bugs
Stink bugs; [2]
  Corrected repelling rate (%) Stinkbugs: ∘

## C=C(C)C1CC=C(C=O)CC1 (centres unmarked) [y-8, perillaldehyde]
honeybees; [1]
  Corrected repelling rate (%) Honeybees: 94.7%
Stink bugs; 0.5 h, 0.1 % strength
  Corrected repelling rate (%) Stinkbugs: x (“x” for rates “not <0”)

## OCc1ccco1 [b-4, furfuryl alcohol]
honeybees; 2 % strength
  Corrected repelling rate R (%): 94.8%
Stink bugs; 0.5 h, 2 % strength
  Corrected repelling rate (%) Stinkbugs: <0%

## CCOC(=O)CC(C)C [x-10, ethyl isovalerate]
honeybees; [3]
  Corrected repelling rate R (%): 61.0%
Stink bugs; [4]
  Corrected repelling rate (%) Stinkbugs: <0%

## CCc1ccc(C)nc1 [x-12, 5-ethyl-2-methylpyridine]
honeybees; [3]
  Corrected repelling rate R (%): 72.4%
Stink bugs; [4]
  Corrected repelling rate (%) Stinkbugs: <0%

## CC1=CCC(=O)O1 [c-3, α-angelicalactone]
honeybees; [5]
  repelling effect / repelled behaviors of honeybees (in words): excellent repelling effect
honeybees; [6]
  Corrected repelling rate R (%): 31.7%
Stink bugs; [7]
  Corrected repelling rate (%) Stinkbugs: <0%

## C=CCOC(=O)CCCCC [y-49, allyl hexanoate]
honeybees; [1]
  Corrected repelling rate (%) Honeybees: 33.5%
Stink bugs; [2]
  Corrected repelling rate (%) Stinkbugs: ∘

## CCCC(=O)OCCC(C)C [y-51, isoamyl butyrate]
honeybees; 2.0% by weight per volume solution
  Corrected repelling rate (%) Honeybees: 75.9%
Stink bugs
  repelling of stink bugs and other injurious insects to be exterminated (in words): not repelling stink bugs
Stink bugs; Test 3, 2.0% by weight per volume solution, 400 μL
  Corrected repelling rate (%) Stinkbugs: ∘

## c1ccc2ncccc2c1 [y-81, quinoline]
honeybees; [1]
  Corrected repelling rate (%) Honeybees: 80.2%
Stink bugs
  repelling of stink bugs and other injurious insects to be exterminated (in words): not repelling stink bugs
Stink bugs; [2]
  Corrected repelling rate (%) Stinkbugs: ∘

## CCc1occc(=O)c1O [y-95, ethyl maltol]
honeybees; [1]
  Corrected repelling rate (%) Honeybees: 27.6%
Stink bugs; [2]
  Corrected repelling rate (%) Stinkbugs: ∘

## CC(=O)/C=C/C1=C(C)CCCC1(C)C [x-15, ß-ionone]
honeybees; [3]
  Corrected repelling rate R (%): 83.7%
Stink bugs; [4]
  Corrected repelling rate (%) Stinkbugs: <0%

## CC(C)C(C)O (centres unmarked) [e-4, 3-methyl-2-butanol]
honeybees; [3]
  Corrected repelling rate R (%): 17.7%
Stink bugs; [4]
  Corrected repelling rate (%) Stinkbugs: <0%

## c1cnccn1 [y-57, pyrazine]
honeybees; [1]
  Corrected repelling rate (%) Honeybees: 51.3%
Stink bugs
  repelling of stink bugs and other injurious insects to be exterminated (in words): not repelling stink bugs
Stink bugs; [2]
  Corrected repelling rate (%) Stinkbugs: ∘

## c1ccc(CCCc2ccccn2)cc1 [x-13, 2-(3-phenylpropyl)pyridine]
honeybees; [3]
  Corrected repelling rate R (%): 86.4%
Stink bugs; [4]
  Corrected repelling rate (%) Stinkbugs: <0%

## CC(C)CC=O [y-14, isovaleraldehyde]
honeybees; [1]
  Corrected repelling rate (%) Honeybees: 65.5%
Stink bugs
  repelling of stink bugs and other injurious insects to be exterminated (in words): not repelling stink bugs
Stink bugs; [2]
  Corrected repelling rate (%) Stinkbugs: ∘

## CC(C)=CC=O [x-6, 3-methyl-2-butenal]
honeybees; [3]
  Corrected repelling rate R (%): 91.8%
Stink bugs; [4]
  Corrected repelling rate (%) Stinkbugs: <0%

## CCOC(=O)c1ccc(O)cc1 [y-17, ethyl 4-hydroxybenzoate]
honeybees; [1]
  Corrected repelling rate (%) Honeybees: 56.6%
Stink bugs
  repelling of stink bugs and other injurious insects to be exterminated (in words): not repelling stink bugs
Stink bugs; [2]
  Corrected repelling rate (%) Stinkbugs: ∘

## CCCCC=O [x-7, valeraldehyde]
honeybees; [3]
  Corrected repelling rate R (%): 50.7%
Stink bugs; [4]
  Corrected repelling rate (%) Stinkbugs: <0%

## CC/C=C/C=O [y-10, trans-2-pentenal]
honeybees; [1]
  Corrected repelling rate (%) Honeybees: 55.4%
Stink bugs
  repelling of stink bugs and other injurious insects to be exterminated (in words): not repelling stink bugs
Stink bugs; [2]
  Corrected repelling rate (%) Stinkbugs: ∘

## C[S+](C)CCC(N)C(=O)O.[Cl-] (centres unmarked) [x-19, (3-amino-3-carboxypropyl)dimethylsulfonium chloride]
honeybees; [3]
  Corrected repelling rate R (%): 40.9%
Stink bugs; [4]
  Corrected repelling rate (%) Stinkbugs: <0%

## Oc1cccc2nccnc12 [y-85, 5-hydroxyquinoxaline]
honeybees; [1]
  Corrected repelling rate (%) Honeybees: 71.5%
Stink bugs
  repelling of stink bugs and other injurious insects to be exterminated (in words): not repelling stink bugs
Stink bugs; [2]
  Corrected repelling rate (%) Stinkbugs: ∘

## COC(=O)c1ccccc1N [y-33, methyl anthranilate]
honeybees; [1]
  Corrected repelling rate (%) Honeybees: 51.0%
Stink bugs
  repelling of stink bugs and other injurious insects to be exterminated (in words): not repelling stink bugs
Stink bugs; [2]
  Corrected repelling rate (%) Stinkbugs: ∘

## CCOC(=O)CC(C)(C)C [y-42, ethyl tert-butylacetate]
honeybees; [1]
  Corrected repelling rate (%) Honeybees: 27.7%
Stink bugs; [2]
  Corrected repelling rate (%) Stinkbugs: ∘

## CC1=C(O)C(=O)OC1C (centres unmarked) [c-2, sotolon]
honeybees; [5]
  repelling effect / repelled behaviors of honeybees (in words): excellent repelling effect
honeybees; [6]
  Corrected repelling rate R (%): 79.7%
Stink bugs; [7]
  Corrected repelling rate (%) Stinkbugs: <0%

## CCCCCO [e-7, 1-pentanol]
honeybees; [1]
  Corrected repelling rate (%) Honeybees: 68.9%
Stink bugs
  repelling of stink bugs and other injurious insects to be exterminated (in words): not repelling stink bugs
Stink bugs; [2]
  Corrected repelling rate (%) Stinkbugs: ∘

## C=CCOC(=O)Cc1ccccc1 [y-44, allyl phenylacetate]
honeybees; [1]
  Corrected repelling rate (%) Honeybees: 73.6%
Stink bugs
  repelling of stink bugs and other injurious insects to be exterminated (in words): not repelling stink bugs
Stink bugs; [2]
  Corrected repelling rate (%) Stinkbugs: ∘

## CCCCCCCCCCCCCC [a-2, tetradecane]
honeybees; [5]
  repelling effect / repelled behaviors of honeybees (in words): excellent repelling effect
honeybees; [6]
  Corrected repelling rate R (%): 96.5%
Stink bugs; [7]
  Corrected repelling rate (%) Stinkbugs: <0%

## Cc1ccc(C(C)C)cc1O [x-1, carvacrol]
honeybees; [3]
  Corrected repelling rate R (%): 80.6%
Stink bugs; [4]
  Corrected repelling rate (%) Stinkbugs: <0%

## CC1=C(O)C(=O)C(C)O1 (centres unmarked) [c-1, furaneol]
honeybees; [6]
  Corrected repelling rate R (%): 44.0%
Stink bugs; [7]
  Corrected repelling rate (%) Stinkbugs: <0%

## CCCCOC(C)=O [y-46, butyl acetate]
honeybees; [1]
  Corrected repelling rate (%) Honeybees: 40.2%
Stink bugs; 0.5 h, 0.1 % strength
  Corrected repelling rate (%) Stinkbugs: x (“x” for rates “not <0”)

## CCCCCCCC1CCC(=O)O1 (centres unmarked) [y-63, γ-undecalactone]
Stink bugs
  repelling of stink bugs and other injurious insects to be exterminated (in words): not repelling stink bugs

## COC[C@@H]1CCCN1 [y-93, (S)-2-(methoxymethyl)pyrrolidine]
honeybees; [1]
  Corrected repelling rate (%) Honeybees: 66.9%

## CC(=O)OC1CC(C)CCC1C(C)C (centres unmarked) [y-26, menthyl acetate]
honeybees; [1]
  Corrected repelling rate (%) Honeybees: 76.4%

## CC(=O)c1ccc2ccccc2c1 [y-67, 2′-acetonaphtone]
honeybees; [1]
  Corrected repelling rate (%) Honeybees: 91.0%

## Sc1ccc2ccccc2c1 [y-88, 2-naphthalenethiol]
honeybees; [1]
  Corrected repelling rate (%) Honeybees: 74.6%

## CCCCCCCCCC(=O)OCC [y-38, ethyl decanoate]
honeybees; [1]
  Corrected repelling rate (%) Honeybees: 58.7%

## CCCCCCCC(=O)OCCCC [y-36, butyl n-octanoate]
honeybees; [1]
  Corrected repelling rate (%) Honeybees: 52.0%

## CCCOC(=O)c1ccc(O)cc1 [y-16, propyl 4-hydroxybenzoate]
honeybees; [1]
  Corrected repelling rate (%) Honeybees: 89.7%

## CCC(=O)OCc1ccccc1 [y-23, benzyl propionate]
honeybees; [1]
  Corrected repelling rate (%) Honeybees: 26.0%

## CC(C)CCO [e-6, 3-methyl-1-butanol]
honeybees; [1]
  Corrected repelling rate (%) Honeybees: 65.4%

Source: patent US20230210116A1, “HONEYBEE REPELLENT” (EARTH CORPORATION, priority 2020, published 2023)
